According to ChEMBL document CHEMBL1142855, “Hydroxylated N-alkyl-4-piperidinyl-2,3-diarylpyrrole derivatives as potent broad-spectrum anticoccidial agents” (Bioorg Med Chem Lett, 2005):

Tests used:
Eimeria tenella [1] = assay: Anticoccidial activity as percentage reduction in oocyst production in birds infected with Eimeria tenella after 100 ppm dose; format: functional
Eimeria acervulina = assay: Anticoccidial activity as percentage reduction in oocyst production in birds infected with Eimeria acervulina after 100 ppm dose; format: functional
[2] = molecular target: cGMP-dependent protein kinase (Eimeria tenella, UniProt Q8MMZ8); assay: Inhibitory activity against cGMP-dependent protein kinase from Eimeria tenella
Chain of cGMP-dependent protein kinase (Q8MMZ8 whole entry): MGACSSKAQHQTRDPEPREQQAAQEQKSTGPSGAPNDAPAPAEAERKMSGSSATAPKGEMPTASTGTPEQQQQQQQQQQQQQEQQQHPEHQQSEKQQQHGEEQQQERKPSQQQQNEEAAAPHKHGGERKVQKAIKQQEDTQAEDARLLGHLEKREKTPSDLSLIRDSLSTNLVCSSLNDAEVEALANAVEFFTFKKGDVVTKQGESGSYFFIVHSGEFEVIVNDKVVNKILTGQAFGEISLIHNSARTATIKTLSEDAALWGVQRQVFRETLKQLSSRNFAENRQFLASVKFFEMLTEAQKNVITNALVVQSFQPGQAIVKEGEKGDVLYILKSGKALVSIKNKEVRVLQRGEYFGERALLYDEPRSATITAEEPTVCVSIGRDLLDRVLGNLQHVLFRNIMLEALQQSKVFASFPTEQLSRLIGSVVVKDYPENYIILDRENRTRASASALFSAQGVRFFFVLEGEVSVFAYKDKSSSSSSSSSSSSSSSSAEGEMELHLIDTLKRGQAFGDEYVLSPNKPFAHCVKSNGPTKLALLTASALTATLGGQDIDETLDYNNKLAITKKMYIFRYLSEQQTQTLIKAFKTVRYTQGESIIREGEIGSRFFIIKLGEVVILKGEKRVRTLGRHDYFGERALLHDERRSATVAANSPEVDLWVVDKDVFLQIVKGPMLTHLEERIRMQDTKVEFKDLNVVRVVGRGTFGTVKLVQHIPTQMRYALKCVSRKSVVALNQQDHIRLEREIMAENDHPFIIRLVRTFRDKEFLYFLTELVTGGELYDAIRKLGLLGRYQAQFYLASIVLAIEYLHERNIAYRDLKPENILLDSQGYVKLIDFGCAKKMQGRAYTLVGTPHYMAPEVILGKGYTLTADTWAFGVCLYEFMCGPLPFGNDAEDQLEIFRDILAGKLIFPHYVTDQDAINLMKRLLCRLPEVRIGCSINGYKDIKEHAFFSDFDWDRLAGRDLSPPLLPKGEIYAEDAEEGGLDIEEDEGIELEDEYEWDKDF

Eimeria tenella [3] = assay: Anticoccidial activity as percentage reduction in oocyst production in birds infected with Eimeria tenella after 100 ppm dose; Range is 50-79%; format: functional

SMILES: OCCCCN1CCC(c2cc(-c3ccncc3)c(-c3ccc(F)cc3)[nH]2)CC1
- Anticoccidial Activity (Eimeria tenella [1]): >80%
- Anticoccidial Activity (Eimeria acervulina): >80%
- IC50 [2]: 1.34 nM

SMILES: CC(C)(C)OCC(O)CN1CCC(c2cc(-c3ccncc3)c(-c3ccc(F)cc3)[nH]2)CC1 (stereo unspecified)
- Anticoccidial Activity (Eimeria tenella [1]): <50%
- Anticoccidial Activity (Eimeria acervulina): <50%
- IC50 [2]: 0.98 nM

SMILES: CC(O)C(O)CN1CCC(c2cc(-c3ccncc3)c(-c3ccc(F)cc3)[nH]2)CC1 (stereo unspecified)
- Anticoccidial Activity (Eimeria tenella [1]): >80%
- Anticoccidial Activity (Eimeria acervulina): >80%
- IC50 [2]: 0.4 nM

SMILES: CCCCC(O)CN1CCC(c2cc(-c3ccncc3)c(-c3ccc(F)cc3)[nH]2)CC1 (stereo unspecified)
- Anticoccidial Activity (Eimeria tenella [1]): <50%
- Anticoccidial Activity (Eimeria acervulina): <50%
- IC50 [2]: 0.41 nM

SMILES: OCC(O)CN1CCC(c2cc(-c3ccncc3)c(-c3ccc(F)cc3)[nH]2)CC1 (stereo in doubt; 5a)
- Anticoccidial Activity (Eimeria tenella [1]): >80%
- Anticoccidial Activity (Eimeria acervulina): <50%
- IC50 [2]: 0.51 nM

SMILES: CC(O)[C@H](C)N1CCC(c2cc(-c3ccncc3)c(-c3ccc(F)cc3)[nH]2)CC1 (stereo partly specified)
- Anticoccidial Activity (Eimeria tenella [1]): >80%
- Anticoccidial Activity (Eimeria acervulina): >80%
- IC50 [2]: 0.86 nM

SMILES: OC(COCc1ccco1)CN1CCC(c2cc(-c3ccncc3)c(-c3ccc(F)cc3)[nH]2)CC1 (stereo unspecified)
- Anticoccidial Activity (Eimeria tenella [1]): <50%
- Anticoccidial Activity (Eimeria acervulina): <50%
- IC50 [2]: 0.82 nM

SMILES: OC(Cc1ccccc1)CN1CCC(c2cc(-c3ccncc3)c(-c3ccc(F)cc3)[nH]2)CC1 (stereo unspecified)
- Anticoccidial Activity (Eimeria tenella [1]): <50%
- Anticoccidial Activity (Eimeria acervulina): >80%
- IC50 [2]: 1.28 nM

SMILES: C[C@@H](O)CN1CCC(c2cc(-c3ccncc3)c(-c3ccc(F)cc3)[nH]2)CC1
- Anticoccidial Activity (Eimeria tenella [1]): >80%
- Anticoccidial Activity (Eimeria acervulina): >80%
- IC50 [2]: 1.2 nM

SMILES: OCCN1CCC(c2cc(-c3ccncc3)c(-c3ccc(F)cc3)[nH]2)CC1
- Anticoccidial Activity (Eimeria tenella [1]): >80%
- Anticoccidial Activity (Eimeria acervulina): >80%

SMILES: OCCCCCN1CCC(c2cc(-c3ccncc3)c(-c3ccc(F)cc3)[nH]2)CC1
- Anticoccidial Activity (Eimeria tenella [1]): >80%
- Anticoccidial Activity (Eimeria acervulina): >80%
- IC50 [2]: 1.46 nM

SMILES: CC(=O)OCCN1CCC(c2cc(-c3ccncc3)c(-c3ccc(F)cc3)[nH]2)CC1
- Anticoccidial Activity (Eimeria tenella [1]): <50%
- Anticoccidial Activity (Eimeria acervulina): <50%
- IC50 [2]: 2.08 nM

SMILES: CCCC(O)CN1CCC(c2cc(-c3ccncc3)c(-c3ccc(F)cc3)[nH]2)CC1 (stereo unspecified)
- Anticoccidial Activity (Eimeria tenella [1]): <50%
- Anticoccidial Activity (Eimeria acervulina): <50%
- IC50 [2]: 0.38 nM

SMILES: C[C@H](O)CN1CCC(c2cc(-c3ccncc3)c(-c3ccc(F)cc3)[nH]2)CC1
- Anticoccidial Activity (Eimeria tenella [1]): >80%
- Anticoccidial Activity (Eimeria acervulina): >80%
- IC50 [2]: 0.48 nM

SMILES: CC(=O)N1C[C@H](O)CC1CN1CCC(c2cc(-c3ccncc3)c(-c3ccc(F)cc3)[nH]2)CC1 (stereo partly specified)
- IC50 [2]: 2.2 nM

SMILES: CCCCCCC(O)CN1CCC(c2cc(-c3ccncc3)c(-c3ccc(F)cc3)[nH]2)CC1 (stereo unspecified)
- Anticoccidial Activity (Eimeria tenella [1]): <50%
- Anticoccidial Activity (Eimeria acervulina): <50%
- IC50 [2]: 1.01 nM

SMILES: COC[C@@H](O)CN1CCC(c2cc(-c3ccncc3)c(-c3ccc(F)cc3)[nH]2)CC1
- Anticoccidial Activity (Eimeria tenella [1]): >80%
- Anticoccidial Activity (Eimeria acervulina): >80%
- IC50 [2]: 0.56 nM

SMILES: OCC(O)CN1CCC(c2cc(-c3ccncc3)c(-c3ccc(F)cc3)[nH]2)CC1 (stereo in doubt; 5e)
- IC50 [2]: 1.27 nM

SMILES: O[C@H]1CNC(CN2CCC(c3cc(-c4ccncc4)c(-c4ccc(F)cc4)[nH]3)CC2)C1 (stereo partly specified)
- IC50 [2]: 0.16 nM

SMILES: OCC(O)CN1CCC(c2cc(-c3ccncc3)c(-c3ccc(F)cc3)[nH]2)CC1 (stereo in doubt; 5b)
- Anticoccidial Activity (Eimeria acervulina): >80%
- IC50 [2]: 0.71 nM

SMILES: OCCCN1CCC(c2cc(-c3ccncc3)c(-c3ccc(F)cc3)[nH]2)CC1
- Anticoccidial Activity (Eimeria tenella [3]): 79%
- Anticoccidial Activity (Eimeria acervulina): >80%

SMILES: CCC(O)CN1CCC(c2cc(-c3ccncc3)c(-c3ccc(F)cc3)[nH]2)CC1 (stereo unspecified)
- Anticoccidial Activity (Eimeria tenella [1]): >80%
- Anticoccidial Activity (Eimeria acervulina): >80%
- IC50 [2]: 0.71 nM

SMILES: CC(O)[C@H](CO)N1CCC(c2cc(-c3ccncc3)c(-c3ccc(F)cc3)[nH]2)CC1 (stereo partly specified)
- Anticoccidial Activity (Eimeria tenella [1]): >80%
- Anticoccidial Activity (Eimeria acervulina): >80%
- IC50 [2]: 0.82 nM

SMILES: OC(COCc1ccccc1)CN1CCC(c2cc(-c3ccncc3)c(-c3ccc(F)cc3)[nH]2)CC1 (stereo unspecified)
- Anticoccidial Activity (Eimeria tenella [1]): <50%
- Anticoccidial Activity (Eimeria acervulina): <50%
- IC50 [2]: 0.47 nM

SMILES: C=CCOCC(O)CN1CCC(c2cc(-c3ccncc3)c(-c3ccc(F)cc3)[nH]2)CC1 (stereo unspecified)
- Anticoccidial Activity (Eimeria tenella [1]): <50%
- Anticoccidial Activity (Eimeria acervulina): <50%
- IC50 [2]: 0.8 nM

SMILES: CC(O)[C@@H](C)N1CCC(c2cc(-c3ccncc3)c(-c3ccc(F)cc3)[nH]2)CC1 (mixture of isomers)
- Anticoccidial Activity (Eimeria tenella [1]): >80%
- Anticoccidial Activity (Eimeria acervulina): >80%
- IC50 [2]: 0.94 nM

SMILES: CCCN1CCC(c2cc(-c3ccncc3)c(-c3ccc(F)cc3)[nH]2)CC1
- Anticoccidial Activity (Eimeria tenella [1]): <50%
- Anticoccidial Activity (Eimeria acervulina): <50%

SMILES: CC(C)OCC(O)CN1CCC(c2cc(-c3ccncc3)c(-c3ccc(F)cc3)[nH]2)CC1 (stereo unspecified)
- Anticoccidial Activity (Eimeria tenella [1]): <50%
- Anticoccidial Activity (Eimeria acervulina): <50%
- IC50 [2]: 0.69 nM

SMILES: CC(O)[C@@H](CO)N1CCC(c2cc(-c3ccncc3)c(-c3ccc(F)cc3)[nH]2)CC1 (stereo partly specified)
- Anticoccidial Activity (Eimeria tenella [1]): >80%
- Anticoccidial Activity (Eimeria acervulina): >80%
- IC50 [2]: 1.01 nM

SMILES: CCOCC(O)CN1CCC(c2cc(-c3ccncc3)c(-c3ccc(F)cc3)[nH]2)CC1 (stereo unspecified)
- Anticoccidial Activity (Eimeria tenella [3]): 79%
- Anticoccidial Activity (Eimeria acervulina): >80%
- IC50 [2]: 0.59 nM

SMILES: COC[C@H](O)CN1CCC(c2cc(-c3ccncc3)c(-c3ccc(F)cc3)[nH]2)CC1
- Anticoccidial Activity (Eimeria tenella [1]): >80%
- Anticoccidial Activity (Eimeria acervulina): >80%
- IC50 [2]: 0.69 nM

SMILES: OC(COc1ccccc1)CN1CCC(c2cc(-c3ccncc3)c(-c3ccc(F)cc3)[nH]2)CC1 (stereo unspecified)
- Anticoccidial Activity (Eimeria tenella [1]): <50%
- Anticoccidial Activity (Eimeria acervulina): <50%
- IC50 [2]: 0.66 nM
